# Reference: the NIST ThermoML archive (doi:10.1021/acs.jced.8b00460)
# Numbers after ± are expanded uncertainties.
# Conditions: 511.35 K; Liquid; Ebulliometric method (Recirculating still)
smiles,measurement,value
O=C(OCCOCCOC(=O)c1ccccc1)c1ccccc1 [diethylene glycol dibenzoate],vapor or sublimation pressure,1.015 ± 0.1 kPa
